Patent US10329307B2, “Heterocyclic compounds as inhibitors of platelet aggregation” (UNIVERSITE DE MONTREAL, priority 2015, dated 2019)

target: PAR4 (Homo sapiens (Human), UniProt Q96RI0); test: FLIPR assay in PAR4-expressing HEK293 cells (PAR4 antagonist activity); assay type: cell-based; conditions: H-Ala-Phe(4-F)-Pro-Gly-Trp-Leu-Val-Lys-Asn-Gly-NH2-induced intracellular calcium mobilization, 11-point curves
From the text: The FLIPR assay is an exemplary in vitro assay for measuring the activity of the PAR4 antagonists of the present invention. In this assay, intracellular calcium mobilization is induced in PAR4 expressing cells by a PAR4 agonist and calcium mobilization is monitored. See, e.g., Example A.
HEK293 cells stably expressing PAR4 were generated by a standard method of transfection of human […] cDNA expression vector or by RAGE technology from Athersys Inc. (Cleveland, Ohio) and selected based on PAR4 protein expression of mRNA expression. […] These cells express endogenous PAR1 and can elicit calcium signal upon stimulation with PAR1 agonist peptide. Cells were grown in Dulbecco's Modified Eagle's Medium (DMEM) (Invitrogen, Carlsbad, Calif.), 10% FBS, 1% PSG, 3 μg/ml puromycin and 25 nM Methotrexate) at 37° C. with 5% CO2.
FLIPR-based calcium mobilization assay in HEK293 cells was used to measure PAR4 antagonism, agonism, and selectivity against PAR1. […] Counter screens for agonist activity and PAR1 antagonist activity were also performed. Briefly, PAR1/PAR4-expressing HEK293 cells were grown in DMEM (Life Technology, Grand Island, N.Y.) containing 10% heat-inactivated FBS, 1% Penicillin-Streptomycin, 10 μg/mL blasticidin, and 100 μg/mL Zeocin at 37° C. with 5% CO2. Cells were plated overnight prior to the experiment in a black 384-well Purecoat Amine clear bottom plate (Becton Dickinson Biosciences, San Jose, Calif.) at 10,000 cells/well in 30 μL growth medium and incubated in a humidified chamber at 37° C. with 5% CO2 overnight. Prior to compound addition, the cell medium was replaced with 40 μL of 1× calcium and magnesium-containing Hank's Balanced Saline Solution (HBSS) (with 20 mM HEPES) and 1:1000 diluted fluorescent calcium indicator (Codex Biosolutions, Gaithersburg, Md.). After a 30 minute incubation period at 37° C. and a further 30 minute incubation and equilibration period at room temperature, 20 μL test compound (diluted in 1×HBSS buffer) was added at various concentrations at 0.17% dimethyl sulfoxide (DMSO) final concentration. Changes in fluorescence intensity were measured using a Functional Drug Screening System (FDSS, Hamamatsu, Japan) to determine agonist activities. The cells were then incubated for 30 minutes at room temperature followed by addition of 20 μL of agonist peptide for antagonist activity measurement. […] Compound potency was derived from 11-point concentration-response curves.
As indicated above, the FLIPR assay, an in vitro assay, measures the PAR4 antagonist activity of compounds tested as described in Example A.

PAR4, sequence (Q96RI0 18-385): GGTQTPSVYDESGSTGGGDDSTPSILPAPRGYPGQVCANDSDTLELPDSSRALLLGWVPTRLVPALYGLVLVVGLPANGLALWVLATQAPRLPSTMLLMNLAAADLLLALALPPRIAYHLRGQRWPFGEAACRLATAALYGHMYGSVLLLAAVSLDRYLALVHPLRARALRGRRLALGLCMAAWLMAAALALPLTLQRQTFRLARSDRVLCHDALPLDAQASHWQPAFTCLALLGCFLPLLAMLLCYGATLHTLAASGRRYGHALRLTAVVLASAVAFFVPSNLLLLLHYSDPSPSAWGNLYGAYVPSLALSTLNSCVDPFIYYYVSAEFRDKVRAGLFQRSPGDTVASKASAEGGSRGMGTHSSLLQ

Compound	IC50
COc1cc(OCC2CCN(c3ccc(C#N)cc3)CC2)c2cc(-c3cn4nc(OC)sc4n3)oc2c1 [Example 48]	1.1 µM
COc1cc(OCC2CCN(c3ccc(Cl)cc3)CC2)c2cc(-c3cn4nc(OC)sc4n3)oc2c1 [Example 49]	2.7 µM
COc1cc(OCC2CCN(c3ccc(F)cc3)CC2)c2cc(-c3cn4nc(OC)sc4n3)oc2c1 [Example 50]	4.8 µM
COc1cc(OCC2CCN(c3ccccc3)CC2)c2cc(-c3cn4nc(OC)sc4n3)oc2c1 [Example 51]	5 µM
COc1cc(OC[C@H]2CCCN(c3ccc(F)cc3)C2)c2cc(-c3cn4nc(OC)sc4n3)oc2c1 [Example 52]	1.1 µM
COc1cc(OC[C@@H]2CCCN(c3ccccc3)C2)c2cc(-c3cn4nc(OC)sc4n3)oc2c1 [Example 53]	1.8 µM
COc1cc(OC[C@H]2CCCN(c3ccccc3)C2)c2cc(-c3cn4nc(OC)sc4n3)oc2c1 [Example 54]	1.4 µM
COc1cc(OCC2CCCCN2c2ccc(Cl)cc2)c2cc(-c3cn4nc(OC)sc4n3)oc2c1 (stereo not shown) [Example 55]	0.72 µM
COc1cc(OCC2CCCCN2c2ccc(Cl)cc2)c2cc(-c3cn4nc(OC)sc4n3)oc2c1 (stereo not shown) [Example 57]	0.74 µM
COc1cc(OC[C@H]2CCCN(Cc3ccc(Cl)cc3)C2)c2cc(-c3cn4nc(OC)sc4n3)oc2c1 [Example 58]	1.4 µM
COc1cc(OC[C@H]2CCCN(C(=O)OCc3ccccc3)C2)c2cc(-c3cn4nc(OC)sc4n3)oc2c1 [Example 59]	1.2 µM
COc1cc(OCC2CCCN(c3nncs3)C2)c2cc(-c3cn4nc(OC)sc4n3)oc2c1 (stereo not shown) [Example 60]	2.7 µM
CCOC(=O)c1cnc(N2CCCC(COc3cc(OC)cc4oc(-c5cn6nc(OC)sc6n5)cc34)C2)s1 (stereo not shown) [Example 61]	1.5 µM
COc1cc(OCC2CCCN(c3ncc(Br)s3)C2)c2cc(-c3cn4nc(OC)sc4n3)oc2c1 (stereo not shown) [Example 62]	1.9 µM
COc1cc(OCC2CCCN(c3ccc(Cl)cn3)C2)c2cc(-c3cn4nc(OC)sc4n3)oc2c1 (stereo not shown) [Example 63]	0.86 µM
COc1cc(OCC2CCCN(c3ccc(Cl)cn3)C2)c2cc(-c3cn4nc(OC)sc4n3)oc2c1 (stereo not shown) [Example 64]	0.82 µM
COc1cc(OCC2CCCN(c3ncc(Br)cn3)C2)c2cc(-c3cn4nc(OC)sc4n3)oc2c1 (stereo not shown) [Example 66]	1.4 µM
COc1cc(OCC2CCC(=O)N(c3ccc(Cl)cc3)C2)c2cc(-c3cn4nc(OC)sc4n3)oc2c1 (stereo not shown) [Example 67]	3.3 µM
COc1cc(OCC2CCCN(c3ccc(NC(=O)OC(C)(C)C)cc3)C2)c2cc(-c3cn4nc(OC)sc4n3)oc2c1 (stereo not shown) [Example 68]	2.1 µM
COc1cc(OCC2CCCN(c3ccc(NC(=O)OC(C)(C)C)nc3)C2)c2cc(-c3cn4nc(OC)sc4n3)oc2c1 (stereo not shown) [Example 69]	3.2 µM
COc1ccc(COc2ccc(N3CCCC(COc4cc(OC)cc5oc(-c6cn7nc(OC)sc7n6)cc45)C3)cc2)cc1 (stereo not shown) [Example 70]	3.5 µM
COc1cc(OCC2CCCN(c3ccc(NC(=O)C(F)(F)F)nc3)C2)c2cc(-c3cn4nc(OC)sc4n3)oc2c1 (stereo not shown) [Example 71]	1.3 µM
COc1cc(OC[C@@H]2CCCN(c3ccc(F)cc3)C2)c2cc(-c3cn4nc(OC)sc4n3)oc2c1 [Example 72]	1.4 µM
COc1cc(OCC2CCCN(C3CCOCC3)C2)c2cc(-c3cn4nc(OC)sc4n3)oc2c1 (stereo not shown) [Example 73]	47 µM
COc1cc(OCC2CCCN(c3ccc(N)nc3)C2)c2cc(-c3cn4nc(OC)sc4n3)oc2c1 (stereo not shown) [Example 74]	28 µM
